Source: PubChem BioAssay AID248 (DTP/NCI, 2004)
Inconclusive results and toxic doses are left out. Rule as the data show it: active = T/C of 150% or more; inactive = T/C below 125%.

Tested on: L1210 leukemia ip in BDF1 mice, survival T/C
Test: NCI In Vivo Anticancer Drug Screen. Data for tumor model L1210 Leukemia (intraperitoneal) in B6D2F1 (BDF1) mice
Details: endpoint: mean survival time, higher = longer survival
Summary of the method: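 Transplanted-tumor mice were given test agent; controls received vehicle only. Survival readings from the two groups were divided (treated over control).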

[1] = dose: 100.0 mg/kg/injection, schedule: Q04DX003 (ip), vehicle: Klucel (hydroxypropylcellulose) (HPC)
[2] = dose: 200.0 mg/kg/injection, schedule: Q04DX003 (ip), vehicle: Klucel (hydroxypropylcellulose) (HPC)
[3] = dose: 400.0 mg/kg/injection, schedule: Q04DX003 (ip), vehicle: Klucel (hydroxypropylcellulose) (HPC)

Measured: T/C

Cl[SiH](Cl)c1ccccc1
inactive: dose: 100.0 mg/kg/injection, schedule: Q01DX001 (ip), vehicle: saline 96 % of control | dose: 200.0 mg/kg/injection, schedule: Q01DX001 (ip), vehicle: saline 96 % of control | dose: 400.0 mg/kg/injection, schedule: Q01DX001 (ip), vehicle: saline 90 % of control

Cc1ccc(N2CCNCC2)cc1Cl
inactive: dose: 12.5 mg/kg/injection, schedule: Q01DX009 (ip), vehicle: saline 100 % of control | dose: 25.0 mg/kg/injection, schedule: Q01DX009 (ip), vehicle: saline 91 % of control | dose: 50.0 mg/kg/injection, schedule: Q01DX009 (ip), vehicle: saline 102 % of control | dose: 50.0 mg/kg/injection, schedule: Q04DX003 (ip), vehicle: saline 102 % of control

COc1ccc(C2C(C(=O)N3CCN(C)CC3)C2c2ccc(OC)cc2)cc1 (centres undefined)
inactive: dose: 12.5 mg/kg/injection, schedule: Q04DX002 (ip), vehicle: saline 102 % of control | dose: 25.0 mg/kg/injection, schedule: Q04DX002 (ip), vehicle: saline 102 % of control | dose: 50.0 mg/kg/injection, schedule: Q04DX002 (ip), vehicle: saline 102 % of control

CC1(C)CCCC2(C)C3Cc4occc4C(C(=O)O)C3C(O)C(O)C12 (centres undefined)
inactive: dose: 100.0 mg/kg/injection, schedule: Q04DX003 (ip), vehicle: saline with Tween-80 106 % of control | dose: 200.0 mg/kg/injection, schedule: Q04DX003 (ip), vehicle: saline with Tween-80 109 % of control | dose: 400.0 mg/kg/injection, schedule: Q04DX003 (ip), vehicle: saline with Tween-80 98 % of control

CC1(C)C2CCC(O)C1C2 (centres undefined)
inactive: dose: 100.0 mg/kg/injection, schedule: Q01DX001 (ip), vehicle: saline with Tween-80 104 % of control | dose: 200.0 mg/kg/injection, schedule: Q01DX001 (ip), vehicle: saline with Tween-80 97 % of control | dose: 400.0 mg/kg/injection, schedule: Q01DX001 (ip), vehicle: saline with Tween-80 90 % of control

CC1CCC2(CC1)OCC(CCl)O2 (centres undefined)
inactive: dose: 222.0 mg/kg/injection, schedule: Q01DX Z (ip), vehicle: saline 107 % of control | dose: 333.0 mg/kg/injection, schedule: Q01DX Z (ip), vehicle: saline 110 % of control | dose: 500.0 mg/kg/injection, schedule: Q01DX Z (ip), vehicle: saline 113 % of control

C/C=C(/C)C(=O)O[C@H]1CC[C@@]2(C)[C@@H]3CC[C@H]4[C@]5(O)C[C@H](O)[C@@]6(O)[C@@H](CN7C[C@@H](C)CC[C@H]7[C@@]6(C)O)[C@]5(O)C[C@@]42O[C@@]13O
inactive: dose: 0.5 mg/kg/injection, schedule: Q01DX001 (ip), vehicle: saline 95 % of control | dose: 1.0 mg/kg/injection, schedule: Q01DX001 (ip), vehicle: saline 98 % of control | dose: 1.5 mg/kg/injection, schedule: Q04DX003 (ip), vehicle: saline with Tween-80 102 % of control | dose: 2.0 mg/kg/injection, schedule: Q01DX001 (ip), vehicle: saline 95 % of control | dose: 4.0 mg/kg/injection, schedule: Q01DX001 (ip), vehicle: saline 101 % of control | dose: 5.0 mg/kg/injection, schedule: Q01DX001 (ip), vehicle: saline 95 % of control

COc1cccc(CO)c1-c1c(CO)cccc1OC
inactive: dose: 100.0 mg/kg/injection, schedule: Q04DX003 (ip), vehicle: saline 95 % of control | dose: 200.0 mg/kg/injection, schedule: Q04DX003 (ip), vehicle: saline 97 % of control | dose: 400.0 mg/kg/injection, schedule: Q04DX003 (ip), vehicle: saline 97 % of control

O=C(O)CC1CCC2CC(O)c3cccc1c32 (centres undefined)
inactive: dose: 100.0 mg/kg/injection, schedule: Q04DX003 (ip), vehicle: acetone 106 % of control | dose: 200.0 mg/kg/injection, schedule: Q04DX003 (ip), vehicle: acetone 105 % of control | dose: 400.0 mg/kg/injection, schedule: Q04DX003 (ip), vehicle: acetone 105 % of control

CCCCCCCCCCCCCCCc1cc(=O)n(-c2cccc([N+](=O)[O-])c2)n1C
inactive: [1] 96 % of control | [2] 94 % of control | [3] 92 % of control

CC1=C(c2ccccc2)C(c2ccccc2)=C(C)C1=O
inactive: dose: 50.0 mg/kg/injection, schedule: Q01DX001 (ip), vehicle: carboxymethylcellulose (CMC) 97 % of control | dose: 100.0 mg/kg/injection, schedule: Q01DX001 (ip), vehicle: carboxymethylcellulose (CMC) 95 % of control | dose: 200.0 mg/kg/injection, schedule: Q01DX001 (ip), vehicle: carboxymethylcellulose (CMC) 89 % of control | dose: 400.0 mg/kg/injection, schedule: Q01DX001 (ip), vehicle: carboxymethylcellulose (CMC) 95 % of control

O=C(Oc1ccccc1Cl)c1ccc(Cl)cc1Cl
inactive: dose: 100.0 mg/kg/injection, schedule: Q01DX009 (ip), vehicle: Klucel (hydroxypropylcellulose) (HPC) 91 % of control | [1] 93 % of control | dose: 200.0 mg/kg/injection, schedule: Q01DX009 (ip), vehicle: Klucel (hydroxypropylcellulose) (HPC) 90 % of control | [2] 96 % of control | dose: 400.0 mg/kg/injection, schedule: Q01DX009 (ip), vehicle: Klucel (hydroxypropylcellulose) (HPC) 91 % of control | [3] 98 % of control
